Positions count from the first letter of the chain named.
Key:
[1] = molecular target: T1, human wild type TauT (TauT^WT) (Homo sapiens, UniProt P31641); assay: [3H]taurine uptake inhibition assay in HEK293T cells overexpressing TauT^WT; type: cell-based; conditions: result in words
T1 sequence (P31641 1-620): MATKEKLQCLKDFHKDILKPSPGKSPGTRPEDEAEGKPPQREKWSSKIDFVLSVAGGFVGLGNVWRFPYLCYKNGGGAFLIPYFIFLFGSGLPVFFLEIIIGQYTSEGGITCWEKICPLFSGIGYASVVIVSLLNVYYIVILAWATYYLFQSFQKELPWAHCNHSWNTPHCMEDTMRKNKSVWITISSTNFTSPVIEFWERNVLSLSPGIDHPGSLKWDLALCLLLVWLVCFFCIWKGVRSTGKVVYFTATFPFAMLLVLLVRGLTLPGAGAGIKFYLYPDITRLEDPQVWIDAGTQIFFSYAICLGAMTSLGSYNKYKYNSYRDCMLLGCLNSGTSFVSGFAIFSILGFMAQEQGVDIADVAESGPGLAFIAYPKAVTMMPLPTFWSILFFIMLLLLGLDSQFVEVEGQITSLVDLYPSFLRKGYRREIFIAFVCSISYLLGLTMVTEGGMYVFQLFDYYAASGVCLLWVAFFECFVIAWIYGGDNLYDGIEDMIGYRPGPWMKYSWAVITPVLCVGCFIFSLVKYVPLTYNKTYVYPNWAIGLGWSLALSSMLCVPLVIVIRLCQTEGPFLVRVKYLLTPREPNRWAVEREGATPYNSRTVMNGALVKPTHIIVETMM

TauT Y138A mutant = molecular target: T2, TauT Y138A mutant (Homo sapiens, UniProt P31641, Y138A); assay: MST binding, TauT Y138A; conditions: mean ± s.e.m., n=3
T2 sequence (P31641 1-620 Y138A): T1 sequence (P31641 1-620) with Y138A

TauT F300A mutant = molecular target: T3, TauT F300A mutant (Homo sapiens, UniProt P31641, F300A); assay: MST binding, TauT F300A; conditions: mean ± s.e.m., n=3
T3 sequence (P31641 1-620 F300A): T1 sequence (P31641 1-620) with F300A

TauT E406A mutant = molecular target: T4, TauT E406A mutant (Homo sapiens, UniProt P31641, E406A); assay: MST binding, TauT E406A; conditions: mean ± s.e.m., n=3
T4 sequence (P31641 1-620 E406A): T1 sequence (P31641 1-620) with E406A

Row | Compound | inhibition of the uptake activity of TauT [1] | Kd (MST) (TauT Y138A mutant) | Kd (MST) (TauT F300A mutant) | Kd (MST) (TauT E406A mutant)
1 | [H]/N=C(/N)NCC(=O)O [GAA, guanidinoacetate] | potent inhibitory effects | drastic loss of GAA binding affinity | drastic loss of GAA binding affinity | only marginally weakened the binding affinity
2 | NCCCC(=O)O [GABA, γ-aminobutyric acid] | potent inhibitory effects | complete loss of the binding | complete loss of the binding | reduces the binding affinity of GABA slightly
3 | NCCS(=O)(=O)O [Taurine, taurine] | – | undetectable binding | reduced the taurine binding to varying extents | reduced the taurine binding to varying extents
